Broadly, the melting point is the temperature, or range, at which the solid turns liquid.

`CCOC(=O)Cc1cccc2c(-c3ccc(N(C)C)cc3)nccc12` came in with a melting point of 132 to 135 °C.

With `CN(c1cccc2cc(-c3nccs3)[nH]c12)S(=O)(=O)c1ccsc1CS(C)(=O)=O`, the melting point came to 253 °C.

As to `CCCCCCP1C(O)C(O)P(CCCCCC)C(O)C1O` (stereo not drawn), the melting point fell in the range of 140 to 147 °C.

`COc1cccc2c1C(C)C(=O)N2C` (stereo not drawn) yielded a melting point of 73 to 74 °C.

The compound `COc1cc2c3c(n(C)c(=O)c2cc1OC)-c1cc2c(cc1C3=CCCCI)OCO2` had a melting point of 173 to 174 °C.

The compound `CC(C)(C)OC(=O)COC[C@@H]1C[C@@H](SC(c2ccccc2)(c2ccccc2)c2ccccc2)CN1S(C)(=O)=O` yielded a melting point of 98 °C.

On to `O=C1CC(c2ccc(Cl)cc2)ON1CC(O)CN1CCOCC1` (stereo not drawn), for which the melting point fell in the range of 121 to 123 °C.

As to `O=C(/C=C/c1cccc(NS(=O)(=O)c2ccc(C(=O)Nc3ccc(Cl)c(-c4ccccn4)c3)c(Cl)c2)c1)NO`, the melting point fell in the range of 217 to 221 °C.

`Cc1ccc(C#N)c(NC(C)C)c1` had a melting point of 55 to 57 °C.

`O=C(O)COc1ccc(C(=O)c2ccoc2)c2ccccc12` showed a melting point of 177 °C.

`CC1(C(=O)c2c[nH]c3ncc(-c4cccc(N5CCN(S(C)(=O)=O)CC5)c4)nc23)CCCCC1` showed a melting point of 230 to 231 °C.

In the case of `CC12CCC3C(CCC4CC=CCC43C)C1CC=C2Br` (stereo not drawn), the melting point is 76 to 77 °C.

For `CN(C)CCNC(=O)c1ccc(-c2ccc3nnn(Cc4ccc5ncccc5c4)c3n2)cc1`, the melting point lay in the range of 122 to 125 °C.

Compound `CN1C(C(=O)Nc2cncc(Cl)n2)=C(O)c2cc(Cl)ccc2S1(=O)=O` yielded a melting point of 283 to 284 °C.

In turn, `CC(C)NC(=O)Oc1ccccc1` came in with a melting point of 81 to 82 °C.

In the case of `COc1cc2c(c(Cl)c1Cl)SCC2=O`, the melting point lay within 178 to 180 °C.

Compound `Cc1c(CO)nc(-c2ccc(C(F)(F)F)cc2)n1C` gave a melting point of 152 °C.

Regarding `CCc1cc(C(C)=O)c(O)cc1OCCCC(C)(C)C#N`, the melting point was 55 to 56 °C.

In turn, `CCCc1c(OCCCCCCC2CC(=O)c3ccc(OCC(=O)OC)c(CCC)c3O2)ccc(C(C)=O)c1O` (stereo not drawn) had a melting point of 121 to 124 °C.

`BrCc1cc(CBr)cc(CBr)c1`: the melting point is 95.5 to 97.5 °C.

For the compound `CC(=O)NC[C@H]1CN(c2ccc(N3CCC(N)(C#N)CC3)c(F)c2)C(=O)O1`, the melting point is 94 to 96 °C.

In turn, `CC(=O)C(=CNN1C=CC=NC1c1ccncc1)C(C)=O` (stereo not drawn) registered a melting point of 182 to 183 °C.

In turn, `Cc1cc(-n2ccnc2)c2cccc(OCc3c(Cl)ccc(S(=O)(=O)N4CCC[C@H]4CO)c3Cl)c2n1` came in with a melting point of 76 °C.

Consider `Cn1nc(-c2ccccc2S(N)(=O)=O)oc1=O`, for which the melting point was 168 to 173 °C.

Turning to `Cc1oc(-c2ccccc2)nc1CCOc1ccc(CN(O)C(N)=O)cc1F`, the melting point is 135 to 136 °C.

Turning to `O=C1C=CC(OC2CCCCC2)N1S(=O)(=O)c1ccccc1` (stereo not drawn), the melting point lay within 104 to 106 °C.

The compound `COc1ccc(C2CCCCC2)cc1-c1csc(N)n1` registered a melting point of 67 °C.

Consider `CCN(CC)CCSC1=C(C#N)C(c2cccnc2)(c2ccc(OC)c(OC)c2)C(=O)N1` (stereo not drawn), for which the melting point fell in the range of 133 to 135 °C.

Take `COc1cc(C(C)=O)ccc1OCCCN1CCN(c2nn(C(=O)c3ccccc3)c3cc(F)ccc23)CC1`: the melting point was in the range of 138 to 140 °C.

As for `CSc1ccc(-c2c(C)nnc(Cl)c2-c2ncc(Cl)cc2Cl)nc1`, the melting point came to 163 °C.

Consider `COC(=O)c1c(C(=O)OC)c(-c2ccccc2)c(C(=O)O)c(C(=O)O)c1-c1ccccc1`, for which the melting point was 196 to 198 °C.

`CC(C)n1cnc2c(NCc3cc(O)ccc3O)nc(NC[C@@H](C)O)nc21` showed a melting point of 162 to 164 °C.

Turning to `COc1ccc2[nH]cc3c2c1[C@@]1(C)OCCN(C)[C@@H]1C3` (relative stereo), the melting point is 200 to 202 °C.

Consider `Cc1ccc2ccccc2c1Cn1ccnc1`, for which the melting point is 98 to 98.5 °C.

For the compound `Cc1ccc(OCC(CO)NC(C)(C)C)c(-c2ccc(=S)[nH]n2)c1` (stereo not drawn), the melting point came to 130 °C.

On to `CNC(=O)S(=O)(=O)Nc1sc(CC(C)C)cc1-c1ccc(Cn2c(-c3ccccc3)nc(OC)c2C=O)cc1`, for which the melting point is 102 to 103 °C.

As to `COCCOCc1c(CN(C)C[C@@H](O)c2ccco2)sc2c(=O)c(C(=O)NCc3ccc(Cl)cc3)cn(C)c12`, the melting point is 146 to 147 °C.

In turn, `O=C(O)CCC1=C2C(=CC(Cl)=CC2(F)Cl)NC1C(=O)O` (stereo not drawn) returned a melting point of 292 to 294 °C.

As to `COc1cc(C=O)cc(OC)c1OCCO`, the melting point is 69 to 70 °C.

As for `COc1nc(C(F)(F)F)cc(=O)n1-c1ccc(Cl)c(C(=O)O)c1`, the melting point lay within 265 to 268 °C.

`NC(=O)c1ccc(OC(F)(F)C(F)(F)Br)cc1` displayed a melting point of 150 to 152 °C.

`COC(=O)c1c(O)cc(OCC(=O)c2ccc3c(c2)C(C)(C)CCC3(C)C)cc1O`: the melting point lay in the range of 162 to 163 °C.

Compound `Cc1ccc(-n2ncc(C(=O)O)c2C)cc1` had a melting point of 203 °C.

`CC(=O)Nc1ccc(CN(C)C2CCOCC2)cc1` gave a melting point of 105 to 106 °C.

With `COc1ccc(Cl)cc1C(=O)NCCc1ccc(C(C)=CCC(=O)O)cc1`, the melting point lay within 180 to 183 °C.

`CS(=O)(=O)Nc1ccc(C(=O)O)cc1Oc1ccc(F)cc1F`: the melting point was 167 to 169 °C.

The compound `COC(=O)C(c1ccc(OCCNC(=O)C2Cc3ccccc3N2S(=O)(=O)c2ccc(-c3cccc(C(F)(F)F)c3)cc2)cc1)C(C)C` (stereo not drawn) had a melting point of 68 to 76 °C.

For the compound `O=c1c2cc(O)ccc2nc(CSc2ncnc3[nH]cnc23)n1-c1ccccc1Cl`, the melting point is 186 to 214 °C.

The compound `CNC(=O)c1c(I)c(C(=O)O)c(I)c(C(=O)NC)c1I` displayed a melting point of over 300 °C.

Compound `COc1cc(C(=O)NNC(=N)N)c(OC)cc1C` displayed a melting point of 193 °C.

In turn, `C=CCn1ncc(=O)[nH]c1=O` registered a melting point of 133 °C.

Compound `FC(F)(F)C(/C=C/c1ccc(CNc2ccccn2)c(Cl)c1)c1cc(Cl)c(Cl)c(Cl)c1` (stereo not drawn) registered a melting point of 140 to 142 °C.

`CCCCc1ncc(/C=C(\Cc2cccs2)C(N)=O)n1Cc1ccccc1Cl` returned a melting point of 182 to 184 °C.

`COCC(=O)N1CCc2cc(S(=O)(=O)N3CCN(c4cccc(Cl)c4)CC3)ccc21` showed a melting point of 230 °C.

In the case of `O=C(c1cccs1)c1cnn2c(-c3ccc(F)c(N(C(=O)OCC(Cl)(Cl)Cl)C(=O)OCC(Cl)(Cl)Cl)c3)ccnc12`, the melting point lay within 94 to 97 °C.

`CN(C)C=C(C#N)C=NN(C)C` came in with a melting point of 130 to 134 °C.

Compound `COCCOCCOc1cc(OC)c(/C=C/C(=O)c2ccc(C(=O)O)cc2)cc1-c1cccs1` yielded a melting point of 174 to 175 °C.

As for `NC(=O)Cn1cc2c(n1)CN=C(c1ccccc1)c1cc(Cl)ccc1-2`, the melting point fell in the range of 236 to 238 °C.

On to `O=C1c2ccccc2COc2ccc(CCCOC(=O)C(F)(F)F)cc21`, for which the melting point is 40.5 to 41 °C.

Turning to `C=C(c1ccc2cc(OC)ccc2c1)C(O)C(=O)OC` (stereo not drawn), the melting point lay in the range of 90.6 to 92.5 °C.

`CC(=O)OCC1OC(n2cc(C(Cl)=CI)c(=O)[nH]c2=O)CC1OC(C)=O` (stereo not drawn): the melting point was 81 to 83 °C.

In turn, `CC(C)S(=O)(=O)c1cnc2c(c1)nc(CC(C)(C)C)n2CC1CCOCC1` showed a melting point of 201 °C.

Consider `Nc1nc(N)c(CCCNc2ccc(C(=O)N[C@@H](CCC(=O)O)C(=O)O)c(Cl)c2)c(=O)[nH]1`, for which the melting point fell in the range of 150 to 178 °C.

In turn, `CC(C)c1cc(C(=O)Nc2ccc(C(=O)O)cc2)oc1C(C)C` returned a melting point of 120 to 121 °C.

As to `COc1ccc(C2(C(=O)O)CCC(=O)CC2)cc1`, the melting point lay in the range of 154 to 156 °C.

Regarding `Sc1cccc(CN2CCCCC2)c1`, the melting point was 121 to 123 °C.

Take `Cc1cccc(C(=O)NCN2CCN(c3cccc(C#N)c3)CC2)c1`: the melting point was in the range of 59 to 61 °C.

As to `CCOC(=O)c1c(-c2ccc(OC)c(OC)c2)c2cc(Cl)ccc2n(C)c1=O`, the melting point was in the range of 104 to 106 °C.

In turn, `CCOC(=O)C(=CC=C(SC)C(=O)c1ccc(Br)cc1)N(C)C` came in with a melting point of 107 °C.

Regarding `N#Cc1c(OCC2CO2)cccc1[N+](=O)[O-]` (stereo not drawn), the melting point was in the range of 131 to 135 °C.

`CCn1cc(C(N)=O)c(=O)c2ccc(-c3ccncc3)cc21`: the melting point was over 300 °C.

For the compound `Nc1ccc2ccc(N3CCCC3)nc2n1`, the melting point worked out at 251 °C.

For `CCOC(=O)c1nc(-c2ccc(F)cc2)c(-c2ccc(S(C)(=O)=O)cc2)s1`, the melting point fell in the range of 173 to 174 °C.

For `COc1ccc(/C=C/CNc2cccc(-c3ccnc4c(C(=O)c5cccs5)cnn34)c2)cc1`, the melting point was in the range of 176 to 179 °C.

The compound `CN(C)C(=S)Oc1ccc(C(=O)c2ccc([N+](=O)[O-])cc2)cc1` gave a melting point of 168 °C.

Turning to `CCOc1cc(OC)cc(O)c1C(=O)C=Cc1ccc(OC)cc1`, the melting point was found to be 124 °C.

With `O=[N+]([O-])c1ccccc1NCc1ccccc1`, the melting point is 65 to 67 °C.

In the case of `CC(C)N1C(=O)C(C)(C)N=C(c2ccccc2Cl)c2cc([N+](=O)[O-])ccc21`, the melting point fell in the range of 169 to 170 °C.

Turning to `CCc1cn(C2CC(O)C(CNC(=O)C(C)Oc3ccc(Cl)cc3Cl)O2)c(=O)[nH]c1=O` (mixture of isomers), the melting point lay within 240 to 243 °C.

Regarding `CC(=O)OC1CSC(Oc2cncc(-c3ccc(OC(C)C)cc3)c2)C(OC(C)=O)C1OC(C)=O` (stereo not drawn), the melting point was 135 °C.

As for `NS(=O)(=O)c1ccc(NC(=O)c2cc(F)ccc2SSc2ccc(F)cc2C(=O)Nc2ccc(S(N)(=O)=O)cc2)cc1`, the melting point was over 300 °C.

The compound `Cc1nc(-c2ccc(N3CCOCC3)c([N+](=O)[O-])c2)sc1C(=O)O` gave a melting point of 218 to 220 °C.

The compound `C[C@@H]1Cc2cc([N+](=O)[O-])ccc2N1` yielded a melting point of 63 to 64 °C.

On to `O=C1c2c(Cl)ccc(Cl)c2C(=O)N1CCN1CCC(c2noc3cc(F)ccc23)CC1`, for which the melting point is 163 to 164 °C.

Turning to `CCC#CCOc1cc2c(cc1/C=C/c1ccc(C(=O)O)cc1)C(C)(C)CCC2(C)C`, the melting point was 144 to 145 °C.

Take `CC(=O)N(c1ccc(C(F)(F)F)cc1)c1nccc(-c2cccc(Cl)c2)n1`: the melting point lay within 129 to 130 °C.

Take `CS(=O)(=O)N(c1ccc(C#CCCN2CC=C(c3ccccc3)CC2)nc1)S(C)(=O)=O`: the melting point was in the range of 168 to 170 °C.

As to `CCNC(=O)c1cc(Cl)ccc1[Si](C)(C)C`, the melting point lay within 104 to 105 °C.
